Measurements as given in patent publication EP0341681B1, “6-Phenoxymethyl-4-hydroxytetrahydropyran-2-ones and 6-thiophenoxymethyl-4-hydroxytetrahydropyran-2-ones, the corresponding dihydrocarboxylic-acid derivatives, salts and esters, process for preparing these compounds, their use as medicines, pharmaceutical compositions and phenols and thiophenols” (HOECHST AKTIENGESELLSCHAFT, priority 1988, dated 1989).
Where two headings read alike, the source gives them in different places.

How the values were obtained:
[1] = molecular target: T1, HMG-CoA-Reduktase in HEP G2-Zellkulturen (Homo sapiens, UniProt P04035); experiment: Inhibition of 14C-sodium acetate incorporation into cholesterol in HEP G2 cell cultures; type: cell-based; conditions: for relative Wirkstärke: Mevinolin-Natrium = 100; for IC70: HepG2, 3 h, read-out: IC₇₀
T1 sequence (P04035 1-888): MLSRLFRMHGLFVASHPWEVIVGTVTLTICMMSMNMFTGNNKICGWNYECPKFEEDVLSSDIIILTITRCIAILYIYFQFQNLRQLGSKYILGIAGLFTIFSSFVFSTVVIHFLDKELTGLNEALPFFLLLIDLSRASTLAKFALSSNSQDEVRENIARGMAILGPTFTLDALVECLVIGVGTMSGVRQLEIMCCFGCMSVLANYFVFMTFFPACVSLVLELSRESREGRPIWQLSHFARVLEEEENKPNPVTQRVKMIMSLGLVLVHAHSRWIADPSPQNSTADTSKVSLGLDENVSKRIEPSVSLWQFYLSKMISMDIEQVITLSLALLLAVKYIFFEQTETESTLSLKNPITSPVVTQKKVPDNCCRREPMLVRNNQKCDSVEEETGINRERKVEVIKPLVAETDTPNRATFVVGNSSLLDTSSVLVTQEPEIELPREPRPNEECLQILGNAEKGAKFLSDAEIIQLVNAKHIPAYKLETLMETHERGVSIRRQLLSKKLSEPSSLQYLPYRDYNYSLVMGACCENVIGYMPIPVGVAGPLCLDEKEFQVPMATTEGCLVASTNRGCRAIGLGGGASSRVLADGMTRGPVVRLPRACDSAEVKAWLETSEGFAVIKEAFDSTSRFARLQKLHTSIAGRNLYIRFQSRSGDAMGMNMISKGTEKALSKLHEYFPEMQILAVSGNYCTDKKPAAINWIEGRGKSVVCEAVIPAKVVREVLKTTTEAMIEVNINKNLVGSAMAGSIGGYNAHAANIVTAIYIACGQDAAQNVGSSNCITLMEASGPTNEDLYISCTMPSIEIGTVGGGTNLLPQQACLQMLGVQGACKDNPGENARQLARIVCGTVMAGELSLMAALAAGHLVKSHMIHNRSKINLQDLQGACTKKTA
Text: 2) Supprimierung bzw. Inhibierung der HMG-CoA-Reduktase in HEP G2-Zellkulturen (einer Human-Hepatoma-Zell-Linie) Es erfolgte eine Bestimmung der Inhibition des Einbaus von ¹⁴C-Natriumacetat in Cholesterin. Monolayers von HEP G2-Zellen in RPMJ 1640 Medium mit 10 % von Lipiden befreitem fötalem Kälberserum wurden 1 Stunde mit verschiedenen Konzentrationen der Natriumsalze der Dihydroxycarbonsäuren der Formel II präinkubiert. Nach Zugabe von ¹⁴C-markiertem Natriumacetat wurde die Inkubation 3 Std. fortgesetzt. Tritium-markiertes Cholesterin wurde als interner Standard zugefügt und ein Aliquot der Zellen alkalisch verseift. Die Lipide wurden mit Chloroform/Methanol 2:1 extrahiert. Nach Zugabe von Carrier-Cholesterin wurde das Lipidgemisch präparativ auf DC-Platten mit Chloroform/Aceton 9:1 getrennt. Die Cholesterin-Zone wurde durch Anfärben mit Joddampf sichtbar gemacht, außerdem mit einem DC-Radioscanner detektiert und dann abgeschabt. Die Menge ¹⁴C-Cholesterin wurde szintigraphisch bestimmt. In einem anderen Aliquot der Zell-Monolayers wurde (zur Berechnung der ¹⁴C-Cholesterinbiosynthese pro mg Zell-Protein) das Zellprotein gemessen. Dieselbe Prozedur wurde mit Zellen der gleichen Kultur ohne Präinkubation mit einer Testverbindung durchgeführt (sogenannte "Lösungsmittelkontrolle"). Die Wirkstärke der Testverbindungen wurde bestimmt durch Vergleich des biosynthetisierten ¹⁴C-Cholesterins in Testläufen und bei "Lösungsmittelkontrolle". Die Wirkstärke wurde auf der Basis von Mevinolin-Natriumsalz als externer Standard berechnet. […] Die gemessenen IC's für Testverbindungen (Natriumsalze der Dihydroxycarbonsäuren der Formel II) (Tab. 2) wurden um die Abweichung von Mevinolin-Natrium von seinem Durchschnittswert korrigiert. Mevinolin-Natrium wurde eine relative Wirkstärke von 100 zugewiesen.

HMG-CoA-Reduktase = molecular target: T2, HMG-CoA-Reduktase (Rattus norvegicus, UniProt P51639); experiment: Inhibition of HMG-CoA reductase activity in solubilised enzyme preparations from rat liver microsomes; type: biochemical, Ratten; conditions: sodium salts of the dihydroxycarboxylic acids of formula II; substrate (S,R) 14C-HMG-CoA; mean of 3 parallel samples; read-out: IC₅₀
T2 construct: solubilisierten Enzympräparationen aus Ratten-Lebermikrosomen; from tissue; host or cells: rat liver microsomes (cholestyramine-induced rats)
T2 sequence (P51639 1-887): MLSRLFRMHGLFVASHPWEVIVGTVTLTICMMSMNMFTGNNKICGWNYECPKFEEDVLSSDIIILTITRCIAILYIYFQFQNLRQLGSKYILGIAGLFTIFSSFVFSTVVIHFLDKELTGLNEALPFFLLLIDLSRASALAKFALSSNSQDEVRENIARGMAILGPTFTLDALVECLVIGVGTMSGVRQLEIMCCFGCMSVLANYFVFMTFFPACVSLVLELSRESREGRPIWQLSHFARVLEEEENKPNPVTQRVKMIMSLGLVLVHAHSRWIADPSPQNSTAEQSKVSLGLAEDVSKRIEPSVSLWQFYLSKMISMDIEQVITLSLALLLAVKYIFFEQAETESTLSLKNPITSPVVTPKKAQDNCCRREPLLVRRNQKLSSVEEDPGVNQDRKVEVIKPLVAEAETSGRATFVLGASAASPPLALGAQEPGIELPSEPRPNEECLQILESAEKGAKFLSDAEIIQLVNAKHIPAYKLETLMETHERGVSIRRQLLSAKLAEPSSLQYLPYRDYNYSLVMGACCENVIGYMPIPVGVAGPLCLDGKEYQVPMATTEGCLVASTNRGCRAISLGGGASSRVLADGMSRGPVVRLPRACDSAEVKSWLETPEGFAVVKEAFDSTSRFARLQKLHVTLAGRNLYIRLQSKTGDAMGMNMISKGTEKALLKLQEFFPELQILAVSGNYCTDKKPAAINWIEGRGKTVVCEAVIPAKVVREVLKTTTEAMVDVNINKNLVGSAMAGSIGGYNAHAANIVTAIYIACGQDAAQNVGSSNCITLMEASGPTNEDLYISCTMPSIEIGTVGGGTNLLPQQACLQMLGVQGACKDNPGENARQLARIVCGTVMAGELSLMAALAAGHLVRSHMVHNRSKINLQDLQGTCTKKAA
Text: Die HMG-CoA-Reduktase-Aktivität der Natriumsalze der erfindungsgemäßen Verbindungen der Formel II wurde in zwei Testsystemen bestimmt 1) Inhibierung der HMG-CoA-Reduktase-Aktivität an solubilisierten Enzympräparationen aus Ratten-Lebermikrosomen Die HMG-CoA-Reduktase-Aktivität wurde an solubilisierten Enzympräparationen aus Lebermikrosomen von Ratten gemessen, die nach Umstellung im Tag-Nacht-Rhythmus mit Cholestyramin (®Cuemid) induziert wurden. Als Substrat diente (S,R) ¹⁴C-HMG-CoA, die Konzentration von NADPH wurde während der Inkubation durch ein regenerierendes System aufrechterhalten. Die Abtrennung von ¹⁴C-Mevalonat von Substrat und anderen Produkten (z.B. ¹⁴C-HMG) erfolgte über Säulenelution, wobei das Elutionsprofil jeder Einzelprobe ermittelt wurde. Auf die ständige Mitführung von ³H-Mevalonat wurde verzichtet, weil es sich bei der Bestimmung um die Relativangabe der Hemmwirkung handelt. In einer Versuchsreiche wurden jeweils die enzymfreie Kontrolle, der enzymhaltige Normalansatz (= 100 %) und solche mit Präparatezusätzen zusammen behandelt. Jeder Einzelwert wurde als Mittelwert aus 3 Parallelproben gebildet. Die Signifikanz der Mittelwertsunterschiede zwischen präparatefreien und präparatehaltigen Proben wurde nach dem t-Test beurteilt. Nach der oben beschriebenen Methode wurden von den erfindungsgemäßen Verbindungen z.B. folgende Hemmwerte auf die HMG-CoA-Reduktase ermittelt (IC₅₀- (mol/l); molare Konzentration der Verbindung pro Liter, die für eine 50 %ige Hemmung erforderlich ist) Tabelle 1

[2] = value outside parentheses (matches ratio of IC50 values)

Row | Compound | relative Wirkstärke [1, 2] | IC50 (HMG-CoA-Reduktase) | IC70 ([1]; mean value over different cell batches, external standard) | IC70 ([1]; concentration for 70 % inhibition, sodium salts, corrected for the deviation of Mevinolin-Natrium from its mean value) | relative Wirkstärke ([1]; value in parentheses (matches ratio of IC70 values))
1 | CC(C)c1cc(C(C)(C)C)cc(-c2ccc(F)cc2)c1OC[C@@H](O)C[C@@H](O)CC(=O)O [Beispiel 8b, 3(R),5(S)-Dihydroxy-6-[2-isopropyl-4-tert.-butyl-6-(4-fluorphenyl)-phenoxy]-hexansäure-Natriumsalz] | < 1 | > 100 nM |  |  | 
2 | CC(C)c1cc(-c2ccc(F)cc2)cc(-c2ccc(F)cc2)c1SC[C@@H](O)C[C@@H](O)CC(=O)O [Beispiel 8g, 3(R),5(S)-Dihydroxy-6-[2-isopropyl-4,6-bis-(4-fluorphenyl)-thiophenoxy]-hexansäure-Natriumsalz] |  | 36 nM |  |  | 
3 | CCC(C)C(=O)OC1CC(C)C=C2C=CC(C)C(CCC(O)CC(O)CC(=O)O)C21 (centres unmarked) [Mevinolin-Natriumsalz, reference compound] |  |  | 150 nM |  | 
4 | CC(C)c1cc(C2CCCCC2)cc(-c2ccc(F)cc2)c1OC[C@@H](O)C[C@@H](O)CC(=O)O [Beispiel 8e, 3(R),5(S)-Dihydroxy-6-[2-isopropyl-4-cyclohexyl-6-(4-fluorphenyl)-phenoxy]-hexansäure-Natriumsalz] |  | 5.2 nM |  |  | 
5 | CC(C)c1cc(-c2ccc(F)cc2)c(SC[C@@H](O)C[C@@H](O)CC(=O)O)c(C(C)C)c1 [Beispiel 8f, 3(R),5(S)-Dihydroxy-6-[2-(4-fluorphenyl)-4,6-diisopropylthiophenoxy]-hexansäure-Natriumsalz] |  | 4.8 nM |  |  | 
6 | CC(C)c1cc(-c2ccccc2)cc(-c2ccc(F)cc2)c1OC[C@@H](O)C[C@@H](O)CC(=O)O [Beispiel 8d, 3(R),5(S)-Dihydroxy-6-[2-isopropyl-4-phenyl-6-(4-fluorphenyl)-phenoxy-]-hexansäure-Natriumsalz] | 53 | 23 nM |  |  | 
7 | CC(C)c1cc(-c2ccc(F)cc2)cc(-c2ccc(F)cc2)c1OC[C@@H](O)C[C@@H](O)CC(=O)O [Beispiel 8c, 3(R),5(S)-Dihydroxy-6-[2-isopropyl-4,6-bis-(4-fluorphenyl)-phenoxy]-hexansäure-Natriumsalz] | 56 | 17 nM |  |  | 
8 | CC(C)c1cc(-c2ccc(F)cc2)c(OC[C@@H](O)C[C@@H](O)CC(=O)O)c(C(C)C)c1 [Beispiel 8a, 3(R),5(S)-Dihydroxy-6-[2-(4-fluorphenyl)-4,6-diisopropylphenoxy]-hexansäure-Natriumsalz] | 185 | 2.3 nM |  | 70 nM | 214
